“Also recorded” adds a separate entry of the source.
Key:
[1] = molecular target: T1, M2 muscarinic receptor (Homo sapiens, UniProt P08172); experiment: stimulation of cAMP, M2 CHO cells (M2Gs); assay type: cell-based; set-up: host or cells: CHO cells, stably transfected; settings: for RAi: Table 8, relative to carbachol; for Δlog(τ/KA): Table 8, to carbachol
T1 sequence (P08172 1-466): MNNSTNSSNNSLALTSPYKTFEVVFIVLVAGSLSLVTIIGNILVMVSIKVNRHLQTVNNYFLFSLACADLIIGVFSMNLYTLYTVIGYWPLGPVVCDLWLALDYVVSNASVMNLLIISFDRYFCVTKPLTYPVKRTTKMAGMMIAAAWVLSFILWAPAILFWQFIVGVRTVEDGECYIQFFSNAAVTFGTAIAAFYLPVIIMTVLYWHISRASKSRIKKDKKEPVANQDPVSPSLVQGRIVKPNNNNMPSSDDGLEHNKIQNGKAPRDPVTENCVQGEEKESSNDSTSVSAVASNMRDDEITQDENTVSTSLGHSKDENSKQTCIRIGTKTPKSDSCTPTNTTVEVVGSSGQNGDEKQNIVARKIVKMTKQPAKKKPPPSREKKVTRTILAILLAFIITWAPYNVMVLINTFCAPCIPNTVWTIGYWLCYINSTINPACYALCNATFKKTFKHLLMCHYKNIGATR
Description: To determine level of cAMP, cells in suspension were pre-incubated for 1 h with 0.4 μM [^3H]adenine, washed, and incubated for 10 min in the presence of isobutylmethylxanthine and 10 μM forskolin. […] Incubation was ended by addition of 0.2 ml of 2.5 M HCl to the samples. Samples were applied to alumina columns (1.5 g of alumina per column), washed with 2 ml ammonium acetate (pH=7.0) and eluted from columns with 4 ml ammonium acetate and measured by liquid scintillation spectrometry. […] The incubation was stopped by addition of 0.5 ml of chloroform methanol HCl mixture (2:1:0.1). After separation of water and organic phases, 0.6 ml of water phase was applied to Dowex columns (1.5 g of Dowex per column), washed by 20 ml of 60 mM ammonium formate/5 mM sodium borate buffer and eluted from columns with 4 ml of 1M ammonium formate/0.1 formic acid buffer and measured by liquid scintillation spectrometry.
(§1) Measurements of the production of cAMP and inositol phosphates: Levels of second messengers cAMP and inositol phosphates were determined in radiochemical chromatography assays as described previously. To determine level of cAMP, cells in suspension were pre-incubated for 1 h with 0.4 μM [^3H]adenine, washed, and incubated for 10 min in the presence of isobutylmethylxanthine and 10 μM forskolin. […] Incubation was ended by addition of 0.2 ml of 2.5 M HCl to the samples. Samples were applied to alumina columns (1.5 g of alumina per column), washed with 2 ml ammonium acetate (pH=7.0) and eluted from columns with 4 ml ammonium acetate and measured by liquid scintillation spectrometry. […] For this purpose, new CHO cell lines stably expressing promiscuous G15 G-protein and M2 or M4 receptor were generated by transfection with pCMV/hygro vector and hygromycin selection. To determine the rate of formation of inositol phosphates IPX, suspended cells were pre-incubated with 0.1 μM [^3H]myo-inositol for 60 min, washed, and incubated with 10 mM LiCl for 15 min. […] The incubation was stopped by addition of 0.5 ml of chloroform methanol HCl mixture (2:1:0.1). After separation of water and organic phases, 0.6 ml of water phase was applied to Dowex columns (1.5 g of Dowex per column), washed by 20 ml of 60 mM ammonium formate/5 mM sodium borate buffer and eluted from columns with 4 ml of 1M ammonium formate/0.1 formic acid buffer and measured by liquid scintillation spectrometry.
For bi-phasic response, curves were inhibitory and stimulatory phase were fitted separately. Operational Model of Functional Agonism
[formula] where y is functional response at concentration of tested compound x, EMAX is maximal response of the system, KA is equilibrium dissociation constant and nH is slope factor. Eq. 5 was fitted to data from functional experiments. Eq. 5 was fitted to data by the two-step procedure described earlier. […] In the second step, Eq. 5 with EMAX fixed to the value determined in the first step was fitted to individual experimental data sets. Relative Intrinsic Activity

[2] = system: striatum (M4 rich); experiment: forskolin-stimulated cAMP in dissipated rat striatum; assay type: cell-based; settings: in words
Description: Effects of compounds 6A and 7A were then measured ex vivo in dissipated rat tissues (FIG. 5). Accumulation of IPX was measured in dissipated brain cortex (rich in M1 & M3), submaxillary gland (M1 & M3), and ventral tegmental area (M5). Native tissues express about 10-times less muscarinic receptors than CHO cell lines. Accumulation of cAMP was measured in cerebellum (M2) and striatum (M4).
Rat dissipated tissues: Suspension of dissipated tissues from rat brain cortex, cerebellum, striatum, ventral tegmental area (VTA) and submaxillary glands was prepared as described previously in supplementary methods. Adult 8-weeks old male Wistar rats were scarified by cervical dislocation in accordance with current legislative and guidelines under permission of Czech Ministry of Agriculture 16OZ23113/2017-17214. Tissues were dissected immediately. Submaxillary glands were minced by scissors. Tissues were dispersed by incubation for 15 min at 37° C. in KHB supplemented with trypsin and trituration every 5 min. Large undissipated parts were removed by cell mesh. Then dissipated tissues were centrifuged 3 min at 250×g, re-suspended in KHB and centrifuged again to remove trypsin. Suspension of dissipated tissues was used immediately in experiments. Two submaxillary glands or about 400 mg of brain tissue was used a 96-sample assay.
as §1
To exclude the possibility that the observed effects of compounds 6A and 7A are the result of overexpression in the heterologous system, functional response to the compounds was measured ex vivo in dissipated native rat tissues. […] Accumulation of IPX was measured in brain cortex, submaxillary gland, and ventral tegmental area (VTA) as brain cortex and submaxillary glands are rich in M1 and in M3 receptors, respectively, and VTA is the only region expressing significant amount of M5 receptors. Accumulation of cAMP was measured in M2-rich cerebellum and M4-rich striatum.

SMILES	RAi ([1]; M2Gs (↑cAMP))	Emax of inhibition of cAMP synthesis [2]	forskolin-stimulated cAMP level [2]	E′MAX ([1]; M2Gs (↑cAMP), Table 8) [fold increase]	Δlog(τ/KA) ([1]; M2Gs (↑cAMP))	EC50 [1] [nM]	Kd [1] [nM]	τ ([1]; M2Gs (↑cAMP), Table 8)
C1=CCN(Cc2cccs2)CC1.Cl [Compound 6A, 1-[(thiophen-2-yl)methyl]-1,2,3,6-tetrahydropyridin-1-ium chloride]	0	comparable to inhibition by carbachol	only a decrease in cAMP level	–	–	–	–	–
C[N+]1(Cc2cccs2)CC=CCC1.[I-] (stereo not drawn) [Compound 7A, 1-methyl-1-[(thiophen-2-yl)methyl]-1,2,3,6-tetrahydropyridin-1-ium iodide]	0	comparable to inhibition by carbachol	only a decrease in cAMP level	–	–	–	–	–
C[N+](C)(C)CCOC(N)=O [carbachol, reference compound]	–	–	transient decrease in forskolin-stimulated cAMP level at nanomolar concentrations followed by an increase at micromolar concentrations; also recorded: transient decrease in forskolin-stimulated cAMP level at sub-micromolar concentrations followed by an increase at micromolar concentrations	3.6 ± 0.2	0	–	–	–
O=C1CCCN1CC#CCN1CCCC1 [oxotremorine, reference compound]	2.65 ± 0.018	–	–	3.1 ± 0.2	−0.42 ± 0.04	1150	3980	2.3 ± 0.2
